Results: patent US12570648B2, “6,7-dihydro-5H-pyrido[2,3-c]pyridazine derivatives and related compounds as Bcl-xL protein inhibitors and pro-apoptotic agents for treating cancer” (LES LABORATOIRES SERVIER, priority 2019, dated 2026)

What was measured:
[1] = molecular target: His-His-(EK)-hsBCLXL(2-197)[N197C] (Homo sapiens (Human), UniProt Q07817, N197C); assay: Fluorescence quenching assay; type: binding; conditions: 1 nM Cy5-labelled protein, 400 nM PUMA peptide, 2 hours at 23° C.; KI determined from IC50
Chain of His-His-(EK)-hsBCLXL(2-197)[N197C] (Q07817 2-197 N197C): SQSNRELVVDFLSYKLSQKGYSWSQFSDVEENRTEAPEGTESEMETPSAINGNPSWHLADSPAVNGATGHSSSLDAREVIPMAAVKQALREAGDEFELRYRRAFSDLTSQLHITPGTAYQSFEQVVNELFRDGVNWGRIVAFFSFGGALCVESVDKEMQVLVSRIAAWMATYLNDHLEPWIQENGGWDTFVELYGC
Outline: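 Cy5-labelled BCL-xL (1 nM) with TQ5WS quencher-labelled PUMA peptide (400 nM); displacement by compound (11-point dilution) raises fluorescence. Buffer 10 mM HEPES, 150 mM NaCl, 0.05% Tween 20, pH 7.4, 5% DMSO; 2 h at 23° C, Ex 620/Em 680 nm. Ki derived from IC50.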

H146 cells = assay: H146 cell viability using MTT assay; type: cell-based; conditions: Homo sapiens, NCI-H146, 48 h exposure
Description: MTT colorimetric assay is based on the mitochondrial reduction of tetrazolium salt by living cells. The viable cell number is proportional to the production of formazan salts, which can be read spectrophotometrically at 540 nm.
MOLT-4 and H146 cells were purchased from ATCC and cultivated in RPMI 1640 supplemented with 10% heat inactivated fetal bovine serum, penicillin (100 IU/ml), streptomycin (100 μg/ml) and L-glutamine (2 mM). Cells were cultured at 37° C. in a humidified atmosphere containing 5% CO2. Cells were seeded in 96 microwell plates (150p per well) and exposed to the compounds for 48 h (3.16 fold serially diluted; 9 concentrations each, triplicates). At the end of incubation time, 15 μL of MTT solution (5 mg/ml) were added per well and the cells were incubated for another 4 h. Then, 100 μL of 10% Sodium Dodecyl Sulfate (SDS)/HCl 10 mM were added per well and the plate was incubated overnight, before measurement of optical density at 540 nm. IC50s were calculated using standard four-parametric curve fitting.

MOLT-4 cells = assay: MOLT-4 cell viability using MTT assay; type: cell-based; conditions: Homo sapiens, MOLT-4, 48 h, 48 h exposure
Description: MTT colorimetric assay is based on the mitochondrial reduction of tetrazolium salt by living cells.
Cells were cultured at 37° C. in a humidified atmosphere containing 5% CO2. […] At the end of incubation time, 15 μL of MTT solution (5 mg/ml) were added per well and the cells were incubated for another 4 h. […] IC50s were calculated using standard four-parametric curve fitting.

| Compound | Ki [1] [nM] | IC50 (H146 cells) [nM] | IC50 (MOLT-4 cells) [nM] |
| --- | --- | --- | --- |
| Cc1c(Nc2nc3ccccc3s2)nnc2c1CCCN2c1nc(C(=O)O)c(CCCOc2ccc(C#CCN3C[C@@H]4[C@H](C3)C4(F)F)cc2F)s1 [Example 63, 2-[3-(1,3-Benzothiazol-2-ylamino)-4-methyl-6,7-dihydro-5H-pyrido[2,3-c]pyridazin-8-yl]-5-[3-[4-[3-[(1S,5R)-6,6-difluoro-3-azabicyclo[3.1.0]hexan-3-yl]prop-1-ynyl]-2-fluoro-phenoxy]propyl]thiazole-4-carboxylic acid] | 0.081 | 20.2 | – |
| Cc1c(Nc2nc3ccccc3s2)nnc2c1CCCN2c1ccc(-c2cnn(CC34CC5(C)CC(C)(C3)CC(OCCN3CCN(C)CC3)(C5)C4)c2C)c(C(=O)O)n1 [Example 128, 6-[3-(1,3-benzothiazol-2-ylamino)-4-methyl-6,7-dihydro-5H-pyrido[2,3-c]pyridazin-8-yl]-3-[1-[[3,5-dimethyl-7-[2-(4-methylpiperazin-1-yl)ethoxy]-1-adamantyl]methyl]-5-methyl-pyrazol-4-yl]pyridine-2-carboxylic acid] | 0.0018 | – | 0.284 |
| Cc1c(Nc2nc3ccccc3s2)nnc2c1CCCN2c1ccc(-c2cnn(CC34CC5(C)CC(C)(C3)CC(OCCN3CCN(C(C)C)CC3)(C5)C4)c2C)c(C(=O)O)n1 [Example 146, 6-[3-(1,3-benzothiazol-2-ylamino)-4-methyl-6,7-dihydro-5H-pyrido[2,3-c]pyridazin-8-yl]-3-[1-[[3-[2-(4-isopropylpiperazin-1-yl)ethoxy]-5,7-dimethyl-1-adamantyl]methyl]-5-methyl-pyrazol-4-yl]pyridine-2-carboxylic acid] | 0.0032 | – | 0.247 |
| Cc1c(Nc2nc3ccccc3s2)nnc2c1CCCN2c1nc(C(=O)O)c(CCCOc2ccc(C#CCN3CCNCC3)cc2F)s1 [Example 79, 2-[3-(1,3-Benzothiazol-2-ylamino)-4-methyl-6,7-dihydro-5H-pyrido[2,3-c]pyridazin-8-yl]-5-[3-[2-fluoro-4-(3-piperazin-1-ylprop-1-ynyl)phenoxy]propyl]thiazole-4-carboxylic acid] | 0.0052 | – | 1.01 |
| Cc1c(Nc2nc3ccccc3s2)nnc2c1CCCN2c1ccc(-c2cnn(CC34CC5(C)CC(C)(C3)CC(OCCNCCOCCO)(C5)C4)c2C)c(C(=O)O)n1 [Example 136, 6-[3-(1,3-benzothiazol-2-ylamino)-4-methyl-6,7-dihydro-5H-pyrido[2,3-c]pyridazin-8-yl]-3-[1-[[3-[2-[2-(2-hydroxyethoxy)ethylamino]ethoxy]-5,7-dimethyl-1-adamantyl]methyl]-5-methyl-pyrazol-4-yl]pyridine-2-carboxylic acid] | 0.0014 | – | 1.25 |
| Cc1c(Nc2nc3ccccc3s2)nnc2c1CCCN2c1ccc(-c2cnn(CC34CC5(C)CC(C)(C3)CC(OCCN(CCCCO)CCCCO)(C5)C4)c2C)c(C(=O)O)n1 [Example 140, 6-[3-(1,3-benzothiazol-2-ylamino)-4-methyl-6,7-dihydro-5H-pyrido[2,3-c]pyridazin-8-yl]-3-[1-[[3-[2-[bis(4-hydroxybutyl)amino]ethoxy]-5,7-dimethyl-1-adamantyl]methyl]-5-methyl-pyrazol-4-yl]pyridine-2-carboxylic acid] | 0.0032 | – | 2.85 |
| Cc1c(Nc2nc3ccccc3s2)nnc2c1CCCN2c1ccc(-c2cnn(CC34CC5(C)CC(C)(C3)CC(OCCN(C)CCCCO)(C5)C4)c2C)c(C(=O)O)n1 [Example 153, 6-[3-(1,3-benzothiazol-2-ylamino)-4-methyl-6,7-dihydro-5H-pyrido[2,3-c]pyridazin-8-yl]-3-[1-[[3-[2-[4-hydroxybutyl(methyl)amino]ethoxy]-5,7-dimethyl-1-adamantyl]methyl]-5-methyl-pyrazol-4-yl]pyridine-2-carboxylic acid] | 0.0012 | – | 0.229 |
| Cc1c(Nc2nc3ccccc3s2)nnc2c1CCCN2c1nc(C(=O)O)c(CCCOc2ccc(C#CCN(C(C)C)C(C)C)cc2F)s1 [Example 86, 2-[3-(1,3-Benzothiazol-2-ylamino)-4-methyl-6,7-dihydro-5H-pyrido[2,3-c]pyridazin-8-yl]-5-[3-[4-[3-(diisopropylamino)prop-1-ynyl]-2-fluoro-phenoxy]propyl]thiazole-4-carboxylic acid] | 0.019 | – | 1.5 |
| Cc1c(Nc2nc3ccccc3s2)nnc2c1CCCN2c1nc(C(=O)O)c(CCCOc2ccc(CCCN3C[C@@H]4[C@H](C3)C4(F)F)cc2F)s1 [Example 72, 2-[3-(1,3-Benzothiazol-2-ylamino)-4-methyl-6,7-dihydro-5H-pyrido[2,3-c]pyridazin-8-yl]-5-[3-[4-[3-[(1R,5S)-6,6-difluoro-3-azabicyclo[3.1.0]hexan-3-yl]propyl]-2-fluoro-phenoxy]propyl]thiazole-4-carboxylic acid] | 0.08 | – | 13.9 |

Now from value to compound:

| Ki [1] [nM] | IC50 (H146 cells) [nM] | IC50 (MOLT-4 cells) [nM] | Compound |
| --- | --- | --- | --- |
| 0.0085 | – | 0.098 | Cc1c(Nc2nc3ccccc3s2)nnc2c1CCCN2c1nc(C(=O)O)c(CCCOc2ccc(C#CCN(C)C)cc2)s1 [Example 141, 2-[3-(1,3-benzothiazol-2-ylamino)-4-methyl-6,7-dihydro-5H-pyrido[2,3-c]pyridazin-8-yl]-5-[3-[4-[3-(dimethylamino)prop-1-ynyl]phenoxy]propyl]thiazole-4-carboxylic acid] |
| 0.023 | – | 2.46 | Cc1c(Nc2nc3ccccc3s2)nnc2c1CCCN2c1nc(C(=O)O)c(CCCOc2cc(C#CCN(C)C)ccc2F)s1 [Example 78, 2-[3-(1,3-Benzothiazol-2-ylamino)-4-methyl-6,7-dihydro-5H-pyrido[2,3-c]pyridazin-8-yl]-5-[3-[5-[3-(dimethylamino)prop-1-ynyl]-2-fluoro-phenoxy]propyl]thiazole-4-carboxylic acid] |
| 0.002 | – | 3.25 | Cc1c(Nc2nc3ccccc3s2)nnc2c1CCCN2c1ccc(-c2cnn(CC34CC5(C)CC(C)(CC(CCCNCC[C@H](O)CO)(C5)C3)C4)c2C)c(C(=O)O)n1 [Example 172, 6-[3-(1,3-benzothiazol-2-ylamino)-4-methyl-6,7-dihydro-5H-pyrido[2,3-c]pyridazin-8-yl]-3-[1-[[3-[3-[[(3S)-3,4-dihydroxybutyl]amino]propyl]-5,7-dimethyl-1-adamantyl]methyl]-5-methyl-pyrazol-4-yl]pyridine-2-carboxylic acid] |
| – | 6360 | 2430 | Cc1c(Nc2nc3ccccc3s2)nnc2c1CCN2c1nc(C(=O)O)cs1 [Example 11, 2-{3-[(1,3-Benzothiazol-2-yl)amino]-4-methyl-5H,6H,7H-pyrrolo[2,3-c]pyridazin-7-yl}-1,3-thiazole-4-carboxylic acid] |
| 0.0045 | – | 0.275 | Cc1c(Nc2nc3ccccc3s2)nnc2c1CCCN2c1nc(C(=O)O)c(CCCOc2ccc(C#CCNCC[C@@H](O)CO)cc2F)s1 [Example 131, 2-[3-(1,3-benzothiazol-2-ylamino)-4-methyl-6,7-dihydro-5H-pyrido[2,3-c]pyridazin-8-yl]-5-[3-[4-[3-[[(3R)-3,4-dihydroxybutyl]amino]prop-1-ynyl]-2-fluoro-phenoxy]propyl]thiazole-4-carboxylic acid] |
| 0.0047 | – | 3.11 | Cc1c(Nc2nc3ccccc3s2)nnc2c1CCCN2c1nc(C(=O)O)c(CCCOc2ccc(C#CCNCC[C@H](O)CO)cc2F)s1 [Example 129, 2-[3-(1,3-benzothiazol-2-ylamino)-4-methyl-6,7-dihydro-5H-pyrido[2,3-c]pyridazin-8-yl]-5-[3-[4-[3-[[(3S)-3,4-dihydroxybutyl]amino]prop-1-ynyl]-2-fluoro-phenoxy]propyl]thiazole-4-carboxylic acid] |
| 0.026 | – | 0.573 | Cc1c(Nc2nc3ccccc3s2)nnc2c1CCCN2c1nc(C(=O)O)c(CCCOc2ccc(C#CC(C)(C)N(C)C)cc2F)s1 [Example 83, 2-[3-(1,3-Benzothiazol-2-ylamino)-4-methyl-6,7-dihydro-5H-pyrido[2,3-c]pyridazin-8-yl]-5-[3-[4-[3-(dimethylamino)-3-methyl-but-1-ynyl]-2-fluoro-phenoxy]propyl]thiazole-4-carboxylic acid] |
| 0.0027 | – | 0.787 | Cc1c(Nc2nc3ccccc3s2)nnc2c1CCCN2c1ccc(-c2cnn(CC34CC5(C)CC(C)(CC(CCCNCCCO)(C5)C3)C4)c2C)c(C(=O)O)n1 [Example 170, 6-[3-(1,3-benzothiazol-2-ylamino)-4-methyl-6,7-dihydro-5H-pyrido[2,3-c]pyridazin-8-yl]-3-[1-[[3-[3-(3-hydroxypropylamino)propyl]-5,7-dimethyl-1-adamantyl]methyl]-5-methyl-pyrazol-4-yl]pyridine-2-carboxylic acid] |
